The text below walks through data of PubChem BioAssay (NCI).

Test systems include MDA-MB-435; NCI-H23 lung; 786-0 renal; NCI-H460 lung; SF-539 CNS; MDA-MB-231 breast; SR leukemia; OVCAR-5 ovarian; DU-145 prostate; CCRF-CEM leukemia; NCI-H522 lung; NCI/ADR-RES ovarian; IGROV1 ovarian; SW-620 colon; OVCAR-3 ovarian; T-47D breast; CAKI-1 renal; OVCAR-4 ovarian; TK-10 renal.
Holding throughout (experiment): inhibition of tumour cell growth, NCI panel, 48 h

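Briefly, cells in 96-well plates were exposed to five compound concentrations for 48 h, and endpoints were estimated by linear interpolation. TGI denotes the concentration required for complete inhibition of growth.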 Some results are limits rather than exact numbers.

`CC(=O)OC1C(Oc2c(C)cc3c(c2O)[C@@H](C)CC[C@@H]3[C@@H](C)CCC=C(C)C)OCC(O)C1O` (stereo partly drawn): the TGI in the experiment on MDA-MB-435 came to 28.1 µM; in the experiment on NCI-H23 lung it was 34.3 µM; with 786-0 renal, 32.8 µM; in the experiment with NCI-H460 lung it was 33.2 µM; in the experiment on SF-539 CNS, 34.7 µM; with MDA-MB-231 breast it was 38.7 µM. Also, the TGI is 47.3 µM in the experiment on SR leukemia; 30.6 µM in the experiment on OVCAR-5 ovarian; 29.8 µM in the experiment on DU-145 prostate; 66.9 µM in the experiment with CCRF-CEM leukemia; 36.4 µM in the experiment on NCI-H522 lung; 40.6 µM in the experiment on NCI/ADR-RES ovarian. Further, the TGI in the experiment with IGROV1 ovarian was found to be 37.9 µM; in the experiment with SW-620 colon, 33.8 µM; in the experiment with OVCAR-3 ovarian, 29.8 µM; with T-47D breast, 43.5 µM; with CAKI-1 renal, 36 µM.
On to `CC(=O)Oc1ccc2cc(-c3ccccc3OC(C)=O)c(=O)oc2c1`, for which the TGI with MDA-MB-435, with NCI-H23 lung, in the experiment with OVCAR-4 ovarian, in the experiment on 786-0 renal, with NCI-H460 lung and in the experiment on SF-539 CNS was above 100 µM throughout. For the same compound, the TGI in the experiment with MDA-MB-231 breast is above 100 µM; with SR leukemia, above 100 µM; in the experiment on OVCAR-5 ovarian, above 100 µM; with DU-145 prostate, above 100 µM; with CCRF-CEM leukemia, 60.6 µM; in the experiment on NCI-H522 lung it was 17.9 µM. The TGI is above 100 µM in the experiment on NCI/ADR-RES ovarian, above 100 µM with SW-620 colon, above 100 µM with OVCAR-3 ovarian and 56.7 µM with T-47D breast.
Regarding `Cc1ccc2c(c1)CC1(Cc3ccccc3C1=O)C2=O` (stereo not drawn), the TGI with MDA-MB-435, in the experiment with NCI-H23 lung, in the experiment with OVCAR-4 ovarian, in the experiment with 786-0 renal, in the experiment on NCI-H460 lung and in the experiment with SF-539 CNS was above 100 µM throughout. In addition, the TGI in the experiment on MDA-MB-231 breast, in the experiment with SR leukemia, in the experiment with OVCAR-5 ovarian, with DU-145 prostate, with CCRF-CEM leukemia and in the experiment with NCI-H522 lung was above 100 µM each time. The TGI in the experiment on NCI/ADR-RES ovarian, in the experiment with IGROV1 ovarian, with SW-620 colon, with TK-10 renal, in the experiment with OVCAR-3 ovarian and in the experiment with T-47D breast was above 100 µM each time.
For `CO/C=C(/C(=O)OC)c1ccccc1COc1cccc(C(F)(F)F)c1`, the TGI in the experiment with MDA-MB-435 is 23.1 µM; in the experiment with NCI-H23 lung, above 100 µM; in the experiment on OVCAR-4 ovarian, above 100 µM; with 786-0 renal it was above 100 µM; with NCI-H460 lung, above 100 µM; with SF-539 CNS, above 100 µM. Further, the TGI in the experiment with MDA-MB-231 breast was 68.8 µM; in the experiment with SR leukemia, above 100 µM; with OVCAR-5 ovarian, above 100 µM; in the experiment with DU-145 prostate it was above 100 µM; in the experiment on CCRF-CEM leukemia, 27.3 µM; with NCI-H522 lung it was 5.86 µM. Besides, the TGI was above 100 µM in the experiment with NCI/ADR-RES ovarian; 47.3 µM with IGROV1 ovarian; 55 µM in the experiment with OVCAR-3 ovarian; 91.4 µM in the experiment with T-47D breast; 53.9 µM with CAKI-1 renal.
With `C1=Cc2cc3c(c4nccc(c24)N1)OCO3`, the TGI in the experiment with MDA-MB-435 is above 56.1 µM; with NCI-H23 lung, 26.3 µM; in the experiment on OVCAR-4 ovarian, above 46.6 µM; in the experiment with 786-0 renal, 21.2 µM; in the experiment on NCI-H460 lung, above 30.6 µM; in the experiment on MDA-MB-231 breast, above 64.7 µM. The TGI in the experiment on SR leukemia is 5.78 µM; in the experiment with OVCAR-5 ovarian, above 69.4 µM; in the experiment on DU-145 prostate, 26.6 µM; with CCRF-CEM leukemia, above 100 µM; in the experiment with NCI-H522 lung, 26.2 µM; in the experiment on NCI/ADR-RES ovarian, above 67.2 µM. The TGI is 8.24 µM in the experiment with IGROV1 ovarian; above 57.8 µM in the experiment with SW-620 colon; above 80.1 µM in the experiment with TK-10 renal; above 100 µM in the experiment with OVCAR-3 ovarian; 34.8 µM in the experiment with T-47D breast; above 32.1 µM in the experiment with CAKI-1 renal.
Take `C[N+]1(C)CCc2cc(O)c(O)cc2C1Cc1ccc(O)c(O)c1` (stereo not drawn): the TGI was 39.7 µM in the experiment on MDA-MB-435; above 100 µM in the experiment on NCI-H23 lung; 45.6 µM in the experiment on OVCAR-4 ovarian; above 100 µM with 786-0 renal; above 100 µM with NCI-H460 lung; above 100 µM in the experiment on SF-539 CNS. For the same compound, the TGI in the experiment on MDA-MB-231 breast was above 100 µM; with SR leukemia it was 86.1 µM; in the experiment with OVCAR-5 ovarian it was above 100 µM; in the experiment on DU-145 prostate, above 100 µM; in the experiment on NCI-H522 lung, 58.4 µM; in the experiment on NCI/ADR-RES ovarian, above 100 µM. The TGI with IGROV1 ovarian was above 100 µM; in the experiment on SW-620 colon, 76.7 µM; in the experiment on TK-10 renal it was above 100 µM; in the experiment on OVCAR-3 ovarian, above 100 µM; in the experiment with T-47D breast, 54.7 µM; in the experiment with CAKI-1 renal it was above 100 µM.
In the case of `CCO/C=N\C1=C(C#N)SC2=N/C(=C\c3ccc(OC)cc3)C(=O)N21`, the TGI with MDA-MB-435 was above 100 µM; in the experiment with NCI-H23 lung, above 100 µM; in the experiment on OVCAR-4 ovarian, 65.6 µM; in the experiment with 786-0 renal it was above 100 µM; in the experiment with SF-539 CNS, above 100 µM; in the experiment with MDA-MB-231 breast it was above 100 µM. Further, the TGI in the experiment with SR leukemia, in the experiment with OVCAR-5 ovarian, in the experiment on DU-145 prostate, with CCRF-CEM leukemia, in the experiment on NCI-H522 lung and with NCI/ADR-RES ovarian was above 100 µM each time. For the same compound, the TGI in the experiment on IGROV1 ovarian, in the experiment on SW-620 colon, in the experiment with TK-10 renal, with T-47D breast and with CAKI-1 renal was above 100 µM in each case.
`CSc1cc(Cl)c(C)cc1S(=O)(=O)NC(=O)NNc1cccc(C(F)(F)F)n1`: the TGI with MDA-MB-435, with OVCAR-4 ovarian, in the experiment on 786-0 renal, in the experiment on NCI-H460 lung, in the experiment on SF-539 CNS and with MDA-MB-231 breast was above 100 µM in each case. The TGI with SR leukemia, in the experiment on OVCAR-5 ovarian, with DU-145 prostate, with CCRF-CEM leukemia, with NCI-H522 lung and in the experiment with NCI/ADR-RES ovarian was above 100 µM each time. Also, the TGI in the experiment with IGROV1 ovarian, in the experiment on SW-620 colon, with OVCAR-3 ovarian, in the experiment with T-47D breast and with CAKI-1 renal was above 100 µM each time.
